Assay results as given in PubChem BioAssay AID2765 (Broad Institute, 2010).
The source made the active and inactive calls.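 The calls were made as follows: active = half-maximal concentration for the rise in caspase light signal at or below ten times the top tested dose; inconclusive = flat fit between 30% and 70% activity, or unreliable curve fit; inactive = the rest.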

System: MEF A1-2A-BIM cells, caspase 3/7 luminescence, 3 h
Assay: inducers of caspase signal in A1-dependent MEFs – cell-based, luminescence, retest, A1 inhibitor project, dose response (AID 2765)

Compound	EC50
CC(C)CC(NC(N)=O)C(=O)OCC(=O)Nc1ccc(SC(F)F)cc1 (configuration not stated)	> 35 µM (inactive)
COC(=O)c1ccc(C(=O)OC)c(NC(=O)CSc2ccccn2)c1	> 35 µM (inactive)
CCOC(=O)C1=C(C)N(CCCC(=O)O)C(=O)NC1c1ccccc1OS(=O)(=O)c1ccc(C)cc1 (configuration not stated)	> 35 µM (inactive)
CCCNC(=O)C(Cc1ccccc1F)NC(=O)c1ccccn1 (configuration not stated)	> 35 µM (inactive)
O=C(CCC(=O)c1cccs1)OCC(=O)c1ccccc1	> 35 µM (inactive)
O=C(CSc1ccc2ccccc2c1)NCCc1ccc(O)c(O)c1	> 35 µM (inactive)
CCOC(=O)c1c(C)nc2sc(C(=O)Nc3ccc(C(C)=O)cc3)c(N)c2c1-c1ccc(OC)cc1	> 35 µM (inactive)
O=C(Nc1ccc(-c2nc3cc(NC(=O)c4cccs4)ccc3o2)cc1)c1cccs1	> 35 µM (inactive)
Cc1ccccc1/C=C/C(=O)c1ccc([N+](=O)[O-])o1	> 35 µM (inactive)
O=C1ON=C(c2ccc(Cl)cc2)/C1=C/c1ccc(O)cc1	> 35 µM (inactive)
Cc1ccsc1CNC1CCCCC1	> 35 µM (inactive)
CCN(CC)CCCN=C(C)c1c(O)n(-c2ccccc2)c(=O)[nH]c1=O	> 35 µM (inactive)
CC(=O)c1ccc(N(C(=O)c2csnn2)C(C(=O)NC(C)(C)C)c2cccs2)cc1 (configuration not stated)	> 35 µM (inactive)
CC(=O)Nc1ccc(SCCN2CC[C@@H](C(C)(C)C)CCC2=O)cc1	> 35 µM (inactive)
O=C(O)Cc1ccc(NC(=O)C(c2ccccc2)c2ccccc2)cc1	> 35 µM (inactive)
CCOC(=O)c1ccc(NS(=O)(=O)c2ccc3c(c2)CCCN3C(C)=O)cc1	> 35 µM (inactive)
Cc1ccc(C)c(NC(=O)COC(=O)c2cc3ccccc3oc2=O)c1	> 35 µM (inactive)
CN(C)C(=O)c1ccc(OCC(F)(F)F)nc1	> 35 µM (inactive)
CCOC(=O)CC1=C(C(=O)OCC)C2(C(=O)Nc3ccccc32)C(C#N)=C(N)O1 (configuration not stated)	> 35 µM (inactive)
N#C/C(=C/c1ccc(N2CCOCC2)o1)c1ccc(Br)cc1	> 35 µM (inactive)
Cc1ccccc1OCCOC(=O)c1c(-c2ccccc2)noc1C	> 35 µM (inactive)
CCn1c(CNc2ccc(F)cc2)nnc1SCC(=O)Nc1ccccc1OC	> 35 µM (inactive)
CC(=O)[C@]1(O)Cc2c(O)c3c(c(O)c2[C@@H](O[C@H]2C[C@H](N)[C@H](O)[C@H](C)O2)C1)C(=O)c1ccccc1C3=O	> 35 µM (inactive)
Cc1cc(=O)n2nc(N3CCCC(C(=O)NCCc4ccc(Cl)cc4)C3)sc2n1 (configuration not stated)	> 35 µM (inactive)
Cc1ccc(C(=O)NCC(=O)OC(C)C(=O)Nc2ccc(N(C)C)cc2)s1 (configuration not stated)	> 35 µM (inactive)

Compound	EC50
COc1cc2sc3ccc(C#Cc4ccc(N)cc4)cc3c(=O)c2cc1OC	> 35 µM (inactive)
O=c1c(Cl)c(Cl)cnn1Cc1ccccc1Cl	> 35 µM (inactive)
O=[N+]([O-])c1ccc(CP(=O)(c2ccccc2)c2ccccc2)cc1	> 35 µM (inactive)
COCCCNC(=O)c1cccc(S(=O)(=O)N2CC3(C)CC2CC(C)(C)C3)c1 (configuration not stated)	> 35 µM (inactive)
Nc1cccc(Oc2cnccn2)c1	> 35 µM (inactive)
O=C(CS(=O)(=O)c1ccccc1)N(CCCN1CCOCC1)c1nc2c(F)cccc2s1	> 35 µM (inactive)
O=C(NCCc1ccc(Cl)cc1)C1CCCN(S(=O)(=O)N2CCCCCC2)C1 (configuration not stated)	> 35 µM (inactive)
CCOC(=O)C1=C(C)N(C)C(=O)C1CC(=O)O (configuration not stated)	> 35 µM (inactive)
CN(CC(=O)Nc1ccccc1Cl)CC(=O)Nc1cccc2ccccc12	> 35 µM (inactive)
O=C(NC1CCCC1)c1cccc2c1C(=O)c1ccc(/C=C/c3ccccc3)cc1S2(=O)=O	10.6 µM
CC(C)CN(CC(C)C)C(=O)c1cc2c(=O)n3ccccc3nc2s1	> 35 µM (inactive)
N#CN=C1SCCS1	> 35 µM (inactive)
COC(=O)c1ccc2c(c1)C(C)(C)C(/C=C/c1ccccc1O)=[N+]2C	12.6 µM
COc1cc(C(=O)Nc2cc3c(cc2N2CCCCC2)n(C)c(=O)n3C)cc(OC)c1OC	> 35 µM (inactive)
O=C(NC1CCCCC1)C(c1ccc(F)cc1)N(CCc1ccccc1)C(=O)CN1C(=O)c2ccccc2S1(=O)=O (configuration not stated)	24.1 µM
O=C(CNc1cccc(S(=O)(=O)N2CCCC2)c1)Nc1cccc(C(F)(F)F)c1	> 35 µM (inactive)
Cc1ccc(C(=O)Nc2ccc(N3CCOCC3)nc2N2CCOCC2)cc1	> 35 µM (inactive)
CCOC(=O)c1c(C)oc2c1c(CN1CCN(C(=O)OCC)CC1)c(O)c1ccccc12	8.16 µM
COc1ccc(OC[C@@H](O)CNC(=O)c2cccc3c2C(=O)c2ccc(-c4ccc(F)cc4OCc4ccccc4)cc2S3(=O)=O)cc1	> 35 µM (inactive)
O=C(Cc1ccccc1)N1CCc2[nH]nc(-c3ccccc3)c2C1	> 35 µM (inactive)
O=C(c1ccco1)N1CCCN(Cc2nc(-c3ccc4c(c3)OCO4)no2)CC1	> 35 µM (inactive)
CN(C)CCCN(C(=O)c1cc2cc([N+](=O)[O-])ccc2s1)c1nc2cc3c(cc2s1)OCCO3	> 35 µM (inactive)
CCN(CC)C1CCN(C(=O)c2ccc(OC3CCN(CCc4ccccc4)CC3)cc2)C1 (configuration not stated)	> 35 µM (inactive)
CCCn1c(SCC(=O)NC)nc2sc3c(c2c1=O)CCC3	> 35 µM (inactive)
COc1ccc(C(CNC(=O)c2cc(S(=O)(=O)NCc3ccco3)ccc2C)N(C)C)cc1 (configuration not stated)	> 35 µM (inactive)

Compound	EC50
COc1cc(/C=C/[N+](=O)[O-])ccc1OC(=O)c1cccnc1	12.5 µM
CSc1ccc(S(=O)(=O)N2CCC(C(=O)NCCc3ccccc3)CC2)cc1	> 35 µM (inactive)
O=C(/C=C/c1ccc(Cl)c(Cl)c1)NC1=NCCS1	> 35 µM (inactive)
CCOCCOC(=O)c1[nH]c2c(c1C)C(=O)CC(c1cccs1)C2 (configuration not stated)	> 35 µM (inactive)
COc1ccc(C2CC(c3c(O)cc(C)oc3=O)=NCCS2)c(OC)c1 (configuration not stated)	> 35 µM (inactive)
Cc1cc(C)cc(NC(=O)CCN2CCCC2)c1	> 35 µM (inactive)
O=[N+]([O-])c1ccc(N2CCCC2)c(F)c1Br	> 35 µM (inactive)
CCCc1nc2cc3c(cc2[nH]1)n(C)c(=O)n3C	> 35 µM (inactive)
COc1ccc(NC(=O)CN2CCC(NC(=O)c3ccc(OC)cc3)CC2)cc1	> 35 µM (inactive)
CS(=O)(=O)Nc1ccc(C2=NN(C(=O)c3cccc(F)c3)C(c3cccs3)C2)cc1 (configuration not stated)	> 35 µM (inactive)
CSC(SC)=C(C#N)C(=O)c1ccccc1	> 35 µM (inactive)
COc1cc(S(=O)(=O)Nc2ccncc2)ccc1F	> 35 µM (inactive)
Cc1cc(C(=O)N2CCN(c3ccc(F)cc3)CC2)on1	> 35 µM (inactive)
O=C1C(Cc2ccccc2)SC(=Nc2ccccc2)N1c1ccccc1 (configuration not stated)	> 35 µM (inactive)
O=C(CCS(=O)(=O)c1ccccc1)N(CCCN1CCOCC1)c1nc2ccc(F)cc2s1	> 35 µM (inactive)
Cc1ccc(-c2csc(N=C(N)N)n2)cc1	> 35 µM (inactive)
CCN(C(=O)CSc1nc2ccccc2n1CC)C1CCS(=O)(=O)C1 (configuration not stated)	> 35 µM (inactive)
CCOC(=O)CCC(=O)Nc1ccc(S(=O)(=O)N2CCC(C)CC2)cc1	> 35 µM (inactive)
Nc1ccc(N2CCN(Cc3ccccc3Cl)CC2)c(Cl)c1	> 35 µM (inactive)
O=C(Cc1ccccc1)Oc1cccc(N2C(=O)CCC2=O)c1	> 35 µM (inactive)
N#CC(C#N)=C1C=CC=CN1/C(=C\c1ccccc1Cl)C(=O)c1ccccc1	7.34 µM
Cc1cc(N2C(=O)C(O)=C(C(=O)c3cc4ccccc4o3)C2c2ccc(Br)cc2)no1 (configuration not stated)	> 35 µM (inactive)
Cn1cnnc1SCC(=O)Nc1ccc(F)cc1	> 35 µM (inactive)
Cc1ccc(S(=O)(=O)n2ccc3c(OCCOCCNCc4ccc(F)cc4)cccc32)cc1	> 35 µM (inactive)
CCOC(=O)CCCCCNC(=O)c1ccc(F)cc1F	> 35 µM (inactive)

Compound	EC50
CN1CCc2c(sc3c2C(=O)NC(c2ccccn2)N3)C1 (configuration not stated)	> 35 µM (inactive)
NS(=O)(=O)c1ccc(NC(=O)CN2CCc3ccccc32)cc1	> 35 µM (inactive)
Cc1ccc(CSc2ncnc3c2cnn3-c2ccccc2)cc1	> 35 µM (inactive)
CN(C)C(=O)[C@@H]1C[C@H]1[C@@H](NC(=O)OCc1ccccc1)c1ccccc1	> 35 µM (inactive)
O=C(Nc1cccc(Cl)c1)c1ccc(OC(=S)N2CCOCC2)cc1	> 35 µM (inactive)
COc1ccccc1NS(=O)(=O)c1ccc(C)c(C(=O)N2CCN(c3ccc(O)cc3)CC2)c1	> 35 µM (inactive)
Cc1onc(-c2c(Cl)cccc2Cl)c1C(=O)N=S(C)(=O)c1ccccc1 (configuration not stated)	> 35 µM (inactive)
COc1ccc(-c2ccc3c(c2)S(=O)(=O)c2cccc(C(=O)NCCOc4ccccc4)c2C3=O)cc1OC	> 35 µM (inactive)
CCc1ccc(CN/C=C/C(=O)c2ccc(Br)cc2)cc1	> 35 µM (inactive)
Cc1ccc(/C=C/C(=O)c2ccc([N+](=O)[O-])o2)cc1	> 35 µM (inactive)
OC(COc1ccc2ccccc2c1Br)Cn1ccnc1 (configuration not stated)	> 35 µM (inactive)
CC(C)C[C@H](NC(=O)N1CCn2c1nc1ccccc12)C(=O)NCc1ccccc1	> 35 µM (inactive)
COc1ccc(/C=C/C(=O)NC(=S)NCCc2ccc(OC)c(OC)c2)cc1	> 35 µM (inactive)
N#Cc1cccnc1N1CCN(C(=O)c2cccc3c2C(=O)c2ccc(-c4ccc(Cl)c(C(F)(F)F)c4)cc2S3(=O)=O)CC1	> 35 µM (inactive)
CCCCCCC(=O)Nc1cc2c(C)cc(=O)oc2cc1C	> 35 µM (inactive)
O=C(CSc1nnc(-c2ccncc2)o1)Nc1ccc(F)c(F)c1	> 35 µM (inactive)
CCCCn1c(N2CCCC2)nc2c1c(=O)[nH]c(=O)n2C	> 35 µM (inactive)
CCOC(=O)[C@H]1[C@H]2COc3ccc(OC)cc3[C@@H]2N2C(=O)CN(CC3CCCO3)C(=O)[C@@]12C (some centres not stated)	> 35 µM (inactive)
COC(=O)c1cc(CNC(=O)CC(C)c2ccccc2)ccc1OC (configuration not stated)	> 35 µM (inactive)
COc1ccccc1CC(=O)N1CCOCC1	> 35 µM (inactive)
O=C(NCC1CCCO1)C1CCN(S(=O)(=O)c2ccc(Br)cc2)CC1 (configuration not stated)	> 35 µM (inactive)
CCN(CC)c1ncnc2c1cnn2Cc1ccc(Cl)cc1	> 35 µM (inactive)
